The source of these data is ChEMBL document CHEMBL5356998, “Diaporaustalides A-L, Austalide Meroterpenoids from a Plant Endophytic Diaporthe sp” (J Nat Prod, 2024).

pIC50: −log10 of the molar value. Bounds are passed on as bounds.

Tested on in one data set: not listed separately
The data set can be described thus: Cytotoxicity against mouse splenocyte by MTT assay. Format: toxicity, cell-based. The note with it: mouse splenocytes.
In the case of `COc1c2c(c(C=O)c3c1C(=O)OC3)O[C@]1(C)CC[C@@]3(O)C(C)(C)[C@@H](O)CC[C@]3(C)[C@H]1C2`, the CC50 (commonly the concentration giving 50% cytotoxicity) was greater than 50 µM.
For the compound `COc1c2c(c(C=O)c3c1C(=O)OC3)O[C@]1(C)CC[C@@]3(O)C(C)(C)CC[C@@H](O)[C@]3(C)[C@H]1C2`, the half-maximal cytotoxic concentration (CC50) was greater than 50 µM.
For the compound `COc1c2c(c(C=O)c3c1C(=O)OC3)O[C@]1(C)CC[C@@]3(O)[C@@](C)(C(=O)O)CCC[C@]3(C)[C@H]1C2`, the CC50 is greater than 50 µM.
Still for that read-out and setting: the figure for `COc1c2c(c(C=O)c3c1C(=O)OC3)O[C@]1(C)[C@H](O)C[C@@]3(O)C(C)(C)CCC[C@]3(C)[C@H]1C2` is 23 µM.
`COc1c2c(c(C=O)c3c1C(=O)OC3)O[C@]1(C)CC[C@@]3(O)[C@@](C)(COC(C)=O)CCC[C@]3(C)[C@H]1C2`: the CC50 was greater than 40 µM.
`COc1c2c(c(C=O)c3c1C(=O)OC3)O[C@]1(C)CC[C@@]3(O)C(C)(C)CCC[C@]3(C)[C@H]1C2` had a CC50 greater than 50 µM.
The same measure, in the same setting: the figure for `COc1c2c(c(C=O)c3c1C(=O)OC3)O[C@]1(C)CC[C@@]3(O)C(C)(C)[C@H](O)CC[C@]3(C)[C@H]1C2` is greater than 50 µM; for `COc1c2c(c(C=O)c3c1C(=O)OC3)O[C@]1(C)CC[C@H]3C(C)(C)[C@@H](O)CC[C@]3(C)[C@H]1C2` it is greater than 50 µM; for `COc1c2c(c(C(OC)OC)c3c1C(=O)OC3)O[C@]1(C)CC[C@@]3(O)C(C)(C)CCC[C@]3(C)[C@H]1C2` it is greater than 50 µM.
Still for that read-out and setting: the figure for `COc1c2c(c(C=O)c3c1C(=O)OC3)O[C@]1(C)CC[C@@]3(O)[C@@](C)(C=O)CCC[C@]3(C)[C@H]1C2` is 43 µM.
On the same count and under the same terms, the figure for `COc1c2c(c(C=O)c3c1C(=O)OC3)O[C@]1(C)CC[C@@]3(O)[C@@](C)(CO)CCC[C@]3(C)[C@H]1C2` is greater than 50 µM; for `COc1c2c(c(C=O)c3c1C(=O)OC3)O[C@]1(C)CC[C@H]3C(C)(C)[C@H](O)CC[C@]3(C)[C@H]1C2` it is 24 µM.

The subject of another data set is Splenocyte. Briefly: Immunosuppressive activity in mouse splenocyte assessed as reduction in ConA-induced mouse T-cell proliferation. The format is functional, cell-based.
Conditions: not given
As to `COc1c2c(c(C=O)c3c1C(=O)OC3)O[C@]1(C)CC[C@@]3(O)C(C)(C)[C@@H](O)CC[C@]3(C)[C@H]1C2`, the pIC50 (usually the IC50 on a negative log10 scale, so that one unit is a factor of ten) is 4.55.
On the same count and under the same terms, the figure for `COc1c2c(c(C=O)c3c1C(=O)OC3)O[C@]1(C)CC[C@@]3(O)C(C)(C)CC[C@@H](O)[C@]3(C)[C@H]1C2` is less than 4.30.
On to `COc1c2c(c(C=O)c3c1C(=O)OC3)O[C@]1(C)CC[C@@]3(O)[C@@](C)(C(=O)O)CCC[C@]3(C)[C@H]1C2`, for which the pIC50 was 4.46.
Same read-out and setting: the result for `COc1c2c(c(C=O)c3c1C(=O)OC3)O[C@]1(C)[C@H](O)C[C@@]3(O)C(C)(C)CCC[C@]3(C)[C@H]1C2` reads 4.66.
With `COc1c2c(c(C=O)c3c1C(=O)OC3)O[C@]1(C)CC[C@@]3(O)[C@@](C)(COC(C)=O)CCC[C@]3(C)[C@H]1C2`, the negative logarithm of the IC50 (pIC50) is 4.55.
On the same count and under the same terms, the figure for `COc1c2c(c(C=O)c3c1C(=O)OC3)O[C@]1(C)CC[C@@]3(O)C(C)(C)CCC[C@]3(C)[C@H]1C2` is 4.38; for `COc1c2c(c(C=O)c3c1C(=O)OC3)O[C@]1(C)CC[C@@]3(O)C(C)(C)[C@H](O)CC[C@]3(C)[C@H]1C2` it is less than 4.30.
As to `COc1c2c(c(C=O)c3c1C(=O)OC3)O[C@]1(C)CC[C@H]3C(C)(C)[C@@H](O)CC[C@]3(C)[C@H]1C2`, the pIC50 was 4.46.
On the same count and under the same terms, the result for `COc1c2c(c(C(OC)OC)c3c1C(=O)OC3)O[C@]1(C)CC[C@@]3(O)C(C)(C)CCC[C@]3(C)[C@H]1C2` reads less than 4.30.
Still for that read-out and setting: the figure for `COc1c2c(c(C=O)c3c1C(=O)OC3)O[C@]1(C)CC[C@@]3(O)[C@@](C)(C=O)CCC[C@]3(C)[C@H]1C2` is 4.43; for `COc1c2c(c(C=O)c3c1C(=O)OC3)O[C@]1(C)CC[C@@]3(O)[C@@](C)(CO)CCC[C@]3(C)[C@H]1C2` it is 4.60.
On the same count and under the same terms, the figure for `COc1c2c(c(C=O)c3c1C(=O)OC3)O[C@]1(C)CC[C@H]3C(C)(C)[C@H](O)CC[C@]3(C)[C@H]1C2` is 4.96.

The subject of a further data set is Splenocyte. Briefly: Immunosuppressive activity in mouse splenocyte assessed as reduction in LPS-induced mouse B-cell proliferation. Format: functional, cell-based.
Conditions: not given
With `COc1c2c(c(C=O)c3c1C(=O)OC3)O[C@]1(C)CC[C@@]3(O)C(C)(C)[C@@H](O)CC[C@]3(C)[C@H]1C2`, the pIC50 is less than 4.30.
As to `COc1c2c(c(C=O)c3c1C(=O)OC3)O[C@]1(C)CC[C@@]3(O)C(C)(C)CC[C@@H](O)[C@]3(C)[C@H]1C2`, the pIC50 is 4.51.
As for `COc1c2c(c(C=O)c3c1C(=O)OC3)O[C@]1(C)CC[C@@]3(O)[C@@](C)(C(=O)O)CCC[C@]3(C)[C@H]1C2`, the pIC50 is less than 4.30.
For `COc1c2c(c(C=O)c3c1C(=O)OC3)O[C@]1(C)[C@H](O)C[C@@]3(O)C(C)(C)CCC[C@]3(C)[C@H]1C2`, the pIC50 was 5.07.
As to `COc1c2c(c(C=O)c3c1C(=O)OC3)O[C@]1(C)CC[C@@]3(O)[C@@](C)(COC(C)=O)CCC[C@]3(C)[C@H]1C2`, the pIC50 is 4.77.
For `COc1c2c(c(C=O)c3c1C(=O)OC3)O[C@]1(C)CC[C@@]3(O)C(C)(C)CCC[C@]3(C)[C@H]1C2`, the pIC50 is 5.42.
As for `COc1c2c(c(C=O)c3c1C(=O)OC3)O[C@]1(C)CC[C@@]3(O)C(C)(C)[C@H](O)CC[C@]3(C)[C@H]1C2`, the pIC50 was less than 4.30.
On the same count and under the same terms, the figure for `COc1c2c(c(C=O)c3c1C(=O)OC3)O[C@]1(C)CC[C@H]3C(C)(C)[C@@H](O)CC[C@]3(C)[C@H]1C2` is less than 4.30; for `COc1c2c(c(C(OC)OC)c3c1C(=O)OC3)O[C@]1(C)CC[C@@]3(O)C(C)(C)CCC[C@]3(C)[C@H]1C2` it is 4.36.
As to `COc1c(C)c2c(c(O)c1C/C=C(\C)CCC(=O)OCCN1CCOCC1)C(=O)OC2` [MYCOPHENOLATE MOFETIL], the pIC50 was 6.00.
Same read-out and setting: the result for `COc1c2c(c(C=O)c3c1C(=O)OC3)O[C@]1(C)CC[C@@]3(O)[C@@](C)(C=O)CCC[C@]3(C)[C@H]1C2` reads 4.41; that for `COc1c2c(c(C=O)c3c1C(=O)OC3)O[C@]1(C)CC[C@@]3(O)[C@@](C)(CO)CCC[C@]3(C)[C@H]1C2`, less than 4.30.
Regarding `COc1c2c(c(C=O)c3c1C(=O)OC3)O[C@]1(C)CC[C@H]3C(C)(C)[C@H](O)CC[C@]3(C)[C@H]1C2`, the pIC50 is 5.17.

Tested on in a further data set: not listed separately
The data set can be described thus: Selectivity index, ratio of CC50 for cytotoxicity against mouse splenocyte to IC50 for immunosuppressive activity in mouse splenocyte assessed as reduction in ConA-induced mouse T-cell proliferation. The note with it: mouse splenocytes, read-out: Ratio CC50/IC50.
Regarding `COc1c2c(c(C=O)c3c1C(=O)OC3)O[C@]1(C)CC[C@@]3(O)C(C)(C)[C@@H](O)CC[C@]3(C)[C@H]1C2`, the selectivity ratio was greater than 1.7.
In the case of `COc1c2c(c(C=O)c3c1C(=O)OC3)O[C@]1(C)CC[C@@]3(O)[C@@](C)(C(=O)O)CCC[C@]3(C)[C@H]1C2`, the selectivity ratio is greater than 1.4.
On to `COc1c2c(c(C=O)c3c1C(=O)OC3)O[C@]1(C)[C@H](O)C[C@@]3(O)C(C)(C)CCC[C@]3(C)[C@H]1C2`, for which the selectivity ratio is greater than 1.
`COc1c2c(c(C=O)c3c1C(=O)OC3)O[C@]1(C)CC[C@@]3(O)[C@@](C)(COC(C)=O)CCC[C@]3(C)[C@H]1C2`: the selectivity ratio was greater than 1.4.
On the same count and under the same terms, the result for `COc1c2c(c(C=O)c3c1C(=O)OC3)O[C@]1(C)CC[C@@]3(O)C(C)(C)CCC[C@]3(C)[C@H]1C2` reads 1.1.
Same read-out and setting: the result for `COc1c2c(c(C=O)c3c1C(=O)OC3)O[C@]1(C)CC[C@H]3C(C)(C)[C@@H](O)CC[C@]3(C)[C@H]1C2` reads greater than 1.4; that for `COc1c2c(c(C=O)c3c1C(=O)OC3)O[C@]1(C)CC[C@@]3(O)[C@@](C)(C=O)CCC[C@]3(C)[C@H]1C2`, 1.2.
Still for that read-out and setting: the figure for `COc1c2c(c(C=O)c3c1C(=O)OC3)O[C@]1(C)CC[C@@]3(O)[C@@](C)(CO)CCC[C@]3(C)[C@H]1C2` is greater than 2; for `COc1c2c(c(C=O)c3c1C(=O)OC3)O[C@]1(C)CC[C@H]3C(C)(C)[C@H](O)CC[C@]3(C)[C@H]1C2` it is 2.2.

Tested on in another data set: not listed separately
Briefly: Selectivity index, ratio of CC50 for cytotoxicity against mouse splenocyte to IC50 for immunosuppressive activity in mouse splenocyte assessed as reduction in LPS-induced mouse B-cell proliferation. The note with it: mouse splenocytes, read-out: Ratio CC50/IC50.
`COc1c2c(c(C=O)c3c1C(=O)OC3)O[C@]1(C)CC[C@@]3(O)C(C)(C)CC[C@@H](O)[C@]3(C)[C@H]1C2`: the selectivity ratio is greater than 1.6.
On the same count and under the same terms, the result for `COc1c2c(c(C=O)c3c1C(=O)OC3)O[C@]1(C)[C@H](O)C[C@@]3(O)C(C)(C)CCC[C@]3(C)[C@H]1C2` reads 2.7; that for `COc1c2c(c(C=O)c3c1C(=O)OC3)O[C@]1(C)CC[C@@]3(O)[C@@](C)(COC(C)=O)CCC[C@]3(C)[C@H]1C2`, greater than 2.3.
Same read-out and setting: the figure for `COc1c2c(c(C=O)c3c1C(=O)OC3)O[C@]1(C)CC[C@@]3(O)C(C)(C)CCC[C@]3(C)[C@H]1C2` is greater than 13; for `COc1c2c(c(C=O)c3c1C(=O)OC3)O[C@]1(C)CC[C@@]3(O)[C@@](C)(C=O)CCC[C@]3(C)[C@H]1C2` it is 1.1; for `COc1c2c(c(C=O)c3c1C(=O)OC3)O[C@]1(C)CC[C@H]3C(C)(C)[C@H](O)CC[C@]3(C)[C@H]1C2` it is 3.6.

The target in a further data set is Alpha-glucosidase (Saccharomyces cerevisiae S288c, UniProt P53341+P38158+P07265). The data set can be described thus: Inhibition of Saccharomyces cerevisiae alpha glucosidase using p-nitrophenyl glucopyranoside as substrate preincubated for 10 mins followed by substrate addition and measured after 20 mins by microplate reader analysis. The format is protein assay.
Conditions: not given
Take `COc1c2c(c(C=O)c3c1C(=O)OC3)O[C@]1(C)CC[C@@]3(O)[C@@](C)(COC(C)=O)CCC[C@]3(C)[C@H]1C2`: the IC50 (in general, the midpoint of a concentration-inhibition curve) came to 166 µM.
Same read-out and setting: the result for `COc1c2c(c(C=O)c3c1C(=O)OC3)O[C@]1(C)CC[C@@]3(O)C(C)(C)CCC[C@]3(C)[C@H]1C2` reads 61 µM.
`COc1c2c(c(C(OC)OC)c3c1C(=O)OC3)O[C@]1(C)CC[C@@]3(O)C(C)(C)CCC[C@]3(C)[C@H]1C2` came in with an IC50 of 92 µM.

A further data set has as its system HeLa. Briefly: Cytotoxicity against human HeLa cells by MTT assay. The format is functional, cell-based.
Conditions: not given
Consider `COc1c2c(c(C=O)c3c1C(=O)OC3)O[C@]1(C)CC[C@H]3C(C)(C)[C@@H](O)CC[C@]3(C)[C@H]1C2`, for which the pIC50 is 5.02.

In a further data set the test system is B-cell. The data set can be described thus: Downregulation od IL-6 expression in LPS induced B cell (unknown origin) incubated for 48 hrs by ELISA method. The note with it: dose 1-25 µM. Format: functional, cell-based. (An ELISA detects its analyte on a solid surface through an enzyme-linked reagent.)
`COc1c2c(c(C=O)c3c1C(=O)OC3)O[C@]1(C)CC[C@@]3(O)C(C)(C)CCC[C@]3(C)[C@H]1C2`: the Activity entry is “Dose-Dependent Effect”.
Consider `COc1c2c(c(C=O)c3c1C(=O)OC3)O[C@]1(C)CC[C@H]3C(C)(C)[C@H](O)CC[C@]3(C)[C@H]1C2`, for which the Activity entry is “Dose-Dependent Effect”.
